Assay results taken from ChEMBL document CHEMBL6182848, “Phenyl-benzyl-ureas with pyridazinone motif: Potent soluble epoxide hydrolase inhibitors with enhanced pharmacokinetics and efficacy in a paclitaxel-induced neuropathic pain model” (Eur J Med Chem, 2025).
The source made the active and inactive calls.

How the values were obtained:
[1] = molecular target: T1, Bifunctional epoxide hydrolase 2 (Homo sapiens, UniProt P34913); test: Inhibition of human recombinant sEH expressed in baculovirus infected Sf9 cells using PHOME as substrate preincubated for 10 mins followed by substrate addition measured after 60 mins by fluorescence based assay; type: cell-based
T1 sequence (P34913 whole entry): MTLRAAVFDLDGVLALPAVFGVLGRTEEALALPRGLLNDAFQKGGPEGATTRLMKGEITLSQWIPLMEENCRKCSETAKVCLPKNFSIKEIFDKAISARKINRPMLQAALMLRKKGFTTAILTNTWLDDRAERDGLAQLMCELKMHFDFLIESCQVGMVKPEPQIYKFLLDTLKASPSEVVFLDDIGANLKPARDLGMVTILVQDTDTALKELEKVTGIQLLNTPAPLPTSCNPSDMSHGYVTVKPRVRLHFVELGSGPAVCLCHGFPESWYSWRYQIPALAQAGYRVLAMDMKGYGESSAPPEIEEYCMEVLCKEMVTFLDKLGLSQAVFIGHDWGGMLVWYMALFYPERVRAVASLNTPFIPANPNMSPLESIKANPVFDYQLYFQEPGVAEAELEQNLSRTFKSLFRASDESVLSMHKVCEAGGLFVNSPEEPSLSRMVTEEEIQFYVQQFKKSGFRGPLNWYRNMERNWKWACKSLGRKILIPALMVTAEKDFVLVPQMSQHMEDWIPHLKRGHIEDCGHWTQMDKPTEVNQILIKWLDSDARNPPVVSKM

[2] = Toxicity in PTX-induced neuropathic pain male C57BL/6 mouse model assessed as change in body weight at 60 mg/kg/day, po treated for 14 days; type: organism-based; conditions: in vivo, 336 h, time 14 day
Mus musculus [3] = test: Analgesic activity in PTX-induced neuropathic pain male C57BL/6 mouse model assessed as improvement in mechanical paw withdrawal threshold at 60 mg/kg, po measured up to 4 hrs by Von Frey test; type: functional, organism-based
Mus musculus [4] = test: Analgesic activity in PTX-induced neuropathic pain male C57BL/6 mouse model assessed as improvement in mechanical paw withdrawal threshold at 60 mg/kg, po administered for 14 days by Von Frey test; type: functional, organism-based; conditions: time 14.0 day
Mus musculus [5] = test: Analgesic activity in PTX-induced neuropathic pain male C57BL/6 mouse model assessed as improvement in mechanical paw withdrawal threshold at 30 mg/kg, po measured up to 4 hrs by Von Frey test; type: functional, organism-based
PBMC [6] = test: Anti-inflammatory activity in LPS-induced human PBMC assessed as reduction in IL-6 level pre-incubated with compound for 30 mins followed by LPS stimulation and measured after 6 hrs by ELISA; type: functional, cell-based; conditions: dose 1-1000 nM
[7] = AUC (0 to infinity) in male CD-1 mouse at 10 mg/kg, po measured up to 24 hrs by LC-MS/MS analysis; type: ADME, organism-based; conditions: in vivo
Mus musculus [8] = test: Analgesic activity in PTX-induced neuropathic pain male C57BL/6 mouse model assessed as improvement in mechanical paw withdrawal threshold at 30 mg/kg, po administered for 14 days by Von Frey test; type: functional, organism-based; conditions: time 14.0 day
[9] = C0 in male CD-1 mouse at 2 mg/kg, iv measured up to 24 hrs by LC-MS/MS analysis; type: ADME, organism-based; conditions: in vivo
Mus musculus [10] = test: Analgesic activity in PTX-induced neuropathic pain male C57BL/6 mouse model assessed as improvement in mechanical paw withdrawal threshold at 10 mg/kg, po measured up to 4 hrs by Von Frey test; type: functional, organism-based
[11] = MRT in male CD-1 mouse at 2 mg/kg, iv measured up to 24 hrs by LC-MS/MS analysis; type: ADME, organism-based; conditions: in vivo
[12] = AUC (0 to infinity) in male CD-1 mouse at 2 mg/kg, iv measured up to 24 hrs by LC-MS/MS analysis; type: ADME, organism-based; conditions: in vivo
[13] = Cytotoxicity against human PBMC at 10 uM incubated for 24 hrs by MTT assay; type: toxicity, cell-based
[14] = Metabolic stability in human liver microsomes assessed as half life measured up to 60 mins in presence of NADPH by LC-MS/MS analysis; type: ADME, Microsome
PBMC [15] = test: Anti-inflammatory activity in LPS-induced human PBMC assessed as reduction in TNF-alpha level pre-incubated with compound for 30 mins followed by LPS stimulation and measured after 6 hrs by ELISA; type: functional, cell-based; conditions: dose 1-1000 nM, time 390.0 min
[16] = Cmax in male CD-1 mouse at 10 mg/kg, po measured up to 24 hrs by LC-MS/MS analysis; type: ADME, organism-based; conditions: in vivo
[17] = Half life in male CD-1 mouse at 2 mg/kg, iv measured up to 24 hrs by LC-MS/MS analysis; type: ADME, organism-based; conditions: in vivo
[18] = Permeability coefficient of compound in PBS at pH 7.4 at 10 uM incubated for 16 hrs PAMPA-BBB assay
[19] = Volume of distribution at steady state in male CD-1 mouse at 2 mg/kg, iv measured up to 24 hrs by LC-MS/MS analysis; type: ADME, organism-based; conditions: in vivo, read-out: Vdss
[20] = MRT in male CD-1 mouse at 10 mg/kg, po measured up to 24 hrs by LC-MS/MS analysis; type: ADME, organism-based; conditions: in vivo
[21] = Clearance in male CD-1 mouse at 2 mg/kg, iv measured up to 24 hrs by LC-MS/MS analysis; type: ADME, organism-based; conditions: in vivo
[22] = Oral bioavailability in male CD-1 mouse at 10 mg/kg measured up to 24 hrs by LC-MS/MS analysis; type: ADME, organism-based; conditions: in vivo
[23] = Metabolic stability in human liver microsomes assessed as intrinsic clearance measured up to 60 mins in presence of NADPH by LC-MS/MS analysis; type: ADME, Microsome; conditions: 1 h
[24] = Half life in male CD-1 mouse at 10 mg/kg, po measured up to 24 hrs by LC-MS/MS analysis; type: ADME, organism-based; conditions: in vivo
Mus musculus [25] = test: Analgesic activity in PTX-induced neuropathic pain male C57BL/6 mouse model assessed as improvement in mechanical paw withdrawal threshold at 10 to 30 mg/kg, po measured for 2 to 4 hrs by Von Frey test; type: functional, organism-based; conditions: dose 10-30 mg/kg, time 2-4 hrs
[26] = Metabolic stability in mouse liver microsomes assessed as half life measured up to 60 mins in presence of NADPH by LC-MS/MS analysis; type: ADME, Microsome

## O=C(NCc1cccc(C(F)(F)F)c1)Nc1ccc(-c2ccc(=O)[nH]n2)cc1
[1]
  IC50: ≥ 100 nM

## NCC1(CC(=O)O)CCCCC1 [GABAPENTIN]
[2]
  Activity: Non-toxic
Mus musculus [3]
  Activity: Active; Exhibited Consistent And Prolonged Effect
Mus musculus [4]
  Activity: Active; Compound Effect Noticeably Decreased With Prolonged Administration

## O=C(NCc1ccccc1OC(F)(F)F)Nc1ccc(-c2ccc(=O)[nH]n2)cc1
Mus musculus [5]
  Activity: Active
PBMC [6]
  Activity: Dose-dependent-effect
[7]
  AUC(0-inf): 29700 ng·h/mL
Mus musculus [8]
  Activity: Active; Effect Was Lower Than Gabapentin With Chronic Use, But Its Efficacy Remained Stable
[9]
  C0 at 24 h: 4640 ng/mL
Mus musculus [10]
  Activity: inactive
[11]
  MRT: 3.5 h
[12]
  AUC(0-inf): 7630 ng·h/mL
[13]
  Activity: Non-toxic
[14]
  half-life: > 3.08 h
PBMC [15]
  Activity: Dose-dependent-effect
[16]
  Cmax: 4700 ng/mL
[17]
  half-life: 3.21 h
[18]
  Papp at 16 h, 10 µM: 3.83 ×10⁻⁶ cm/s
[19]
  Vd: 1.02 L/kg
[20]
  MRT: 5.23 h
[21]
  clearance: 4.8 mL/min/kg
[22]
  bioavailability: 78%
[23]
  CLH: < 7.5 µL/min/mg
[24]
  half-life: 2.43 h
Mus musculus [25]
  Activity: Active
[26]
  half-life: > 3.08 h

## O=C(Cc1ccccc1C(F)(F)F)Nc1ccc(-c2ccc(=O)[nH]n2)cc1
[1]
  IC50: > 100 nM

## O=C(NCc1ccccc1C(F)(F)F)Nc1ccc(-c2ccc(=O)[nH]n2)cc1
[14]
  half-life: > 3.08 h
[23]
  CLH: < 7.5 µL/min/mg
[26]
  half-life: > 3.08 h

## O=C(NCc1ccccc1F)Nc1ccc(-c2ccc(=O)[nH]n2)cc1
[1]
  IC50: ≥ 100 nM

## O=C(NCc1ccc(C(F)(F)F)cc1)Nc1ccc(-c2ccc(=O)[nH]n2)cc1
[1]
  IC50: ≥ 100 nM

## COc1ccc(CNC(=O)Nc2ccc(-c3ccc(=O)[nH]n3)cc2)c(C(F)(F)F)c1
[14]
  half-life: > 3.08 h
[23]
  CLH: < 7.5 µL/min/mg
[26]
  half-life: 0.393 h

## O=C(NCc1ccccc1)Nc1ccc(-c2ccc(=O)[nH]n2)cc1
[1]
  IC50: > 100 nM

## Cn1nc(-c2ccc(NC(=O)NCc3ccccc3C(F)(F)F)cc2)ccc1=O
[14]
  half-life: > 3.08 h
[23]
  CLH: < 7.5 µL/min/mg
[26]
  half-life: > 3.08 h

## CN(Cc1cnc2nc(N)nc(N)c2n1)c1ccc(C(=O)N[C@@H](CCC(=O)O)C(=O)O)cc1 [METHOTREXATE]
[18]; 16 h, 10 µM
  Kp: 0.001 ×10⁻⁶ cm/s
